Test results as given in article PMC12481569, “Novltex: A New Class of Antibiotics with Potent Activity against Multidrug-Resistant Bacterial Pathogens–Design, Synthesis, and Biological Evaluation” (Journal of Medicinal Chemistry, 2025).
≈ marks a conversion by molar mass, not a printed value. Where “and” joins values, the source holds several entries; their conditions need not be identical. Equal values may be shown once. Read-outs that look alike come from different tables or passages of the source. Positions of bridges follow the written chain, without caps; N, C: chain ends. Non-standard residues stand in square brackets, D forms with d. Residues, ends and D or L forms follow the SMILES beside them. dChg = N[C@@H](C(=O)O)C1CCCCC1

How the values were obtained:
Test in all cases: microbe, parasite or virus in culture
[1] = test system: Multidrug-Resistant (MDR) E. faecium; details: for MIC: Enterococcus faecium
Protocol: (§1) We further evaluated analogue 12 against multidrug-resistant (MDR) strains of S. aureus (acquired from the NARSA collection) and MDR E. faecium (acquired from International Health Management Associates, IHMA, Europe Sarl), comparing its activity to various classes of clinically used antibiotics (Table ).
(§2) MICs were performed as previously reported 4. For MIC testing all peptides were dissolved in DMSO.
(§3) Bacterial cultures were grown overnight on Mueller-Hinton Agar (MHA) plates and adjusted to a final inoculum of 10^5 – 10^6 CFU/mL. 100 µl of ino culum in Meuller -Hinton broth (MHB) was mixed with equal volume of peptides (dissolved in MHB) at 2x their concentration in a 96 well plate . For daptomycin MIC determination, the same protocol was followed with the addition of 50 mg/L calcium chloride to the medium. MIC values were determined in the media contain ing polysorbate 80 (0.002%, v/v) to prevent non -specific adsorption of the peptides to plastic surfaces. The final peptides concentrations ranged from 0.0625 – 32 µg/mL. The 96 well plates were then incubated at 37 °C for 24 h. All the experiments were performed in two independent duplicates and the MIC was determined as the lowest concentration in which no visible growth was observed.
(§4) Antibiotics MIC break points ( µg/mL)
(§5) Table. S4: Susceptibility cut-off values (MIC breakpoints) for various clinical antibiotics. […]

[2] = test system: Multidrug-Resistant (MDR) S. aureus; details: for MIC: Staphylococcus aureus; for susceptibility/resistance of the S. aureus isolates based on the MIC breakpoints: four MDR S. aureus isolates
Protocol: as §1, §2, §3, §4, §5

MRSA ATCC 33591 = format: cell-based, Staphylococcus aureus; details: for MIC against MRSA ATCC 33591: 24 h, two independent duplicates
Protocol: as §2
as §3, with “observed. […]” for “observed.”

[3] = 24 h, read-out: MIC, Enterococcus faecium 1563254
[4] = 24 h, read-out: MIC, Enterococcus faecium 1581582
[5] = 24 h, read-out: MIC, Enterococcus faecium 1766686
[6] = 24 h, read-out: MIC, Staphylococcus aureus NR 45914
[7] = 24 h, read-out: MIC, Staphylococcus aureus NR 45926
[8] = 24 h, read-out: MIC, Staphylococcus aureus NR 45930
[9] = 24 h, read-out: MIC, Staphylococcus aureus NR 46062
[10] = broth dilution in MHB with 0.002% v/v polysorbate 80, inoculum 10^5-10^6 CFU/mL, 37 °C, no visible growth, Table 1
[11] = Table 2, MHB with 0.002% polysorbate 80, 37 °C

C[C@H]1COc2c(N3CCN(C)CC3)c(F)cc3c(=O)c(C(=O)O)cn1c23 [Levofloxacin]
MIC [1, 3]: 32 µg/mL (≈ 88.6 µM) | MIC [1, 4]: 32 µg/mL (≈ 88.6 µM) | MIC [1, 5]: 32 µg/mL (≈ 88.6 µM) | MIC [2, 6]: 1 µg/mL (≈ 2.77 µM) | MIC [2, 7]: 4 µg/mL (≈ 11.1 µM) | MIC [2, 8]: > 32 µg/mL | MIC [2, 9]: 32 µg/mL (≈ 88.6 µM) | susceptibility/resistance of the S. aureus isolates based on the MIC breakpoints [2]: 3 out of 4 isolates showed resistance

CC(C)C[C@H](NC(=O)[C@H](N)Cc1ccccc1)C(=O)N[C@@H](CCCCN)C(=O)N[C@H](CO)C(=O)N[C@H]1C(=O)N[C@@H](C)C(=O)N[C@@H](CC(C)C)C(=O)N[C@@H](CC(C)C)C(=O)O[C@H]1C [analogue 3]
MIC against MRSA ATCC 33591 (MRSA ATCC 33591; [10]): 32 µg/mL (≈ 36.6 µM)

CC(C)C[C@@H]1NC(=O)[C@H](C)NC(=O)[C@H](NC(=O)[C@H](CO)NC(=O)[C@@H](CCCCN)NC(=O)[C@@H](Cc2c[nH]c3ccccc23)NC(=O)[C@@H](N)Cc2ccccc2)[C@H](C)OC(=O)[C@H](CC(C)C)NC1=O [analogue 13, Leu2Trp–Novltex] (H-F[dW][dK]S[dT]ALL; ester 5-C)
MIC against MRSA ATCC 33591 (MRSA ATCC 33591; [11]): > 32 µg/mL

CC(C)C[C@@H]1NC(=O)[C@H](C)NC(=O)[C@H](NC(=O)[C@H](CO)NC(=O)[C@@H](CCCCN)NC(=O)[C@@H](CC(C)C)NC(=O)[C@@H](N)Cc2ccccc2)[C@H](C)OC(=O)[C@H](CC(C)C)NC1=O [analogue 4]
MIC against MRSA ATCC 33591 (MRSA ATCC 33591; [10]): 2 to 4 µg/mL | MIC against MRSA ATCC 33591 (MRSA ATCC 33591; broth dilution in MHB with 0.002% v/v polysorbate 80, inoculum 10^5-10^6 CFU/mL, 37 °C, no visible growth, Table 1, listed as Novltex analogue 4): 4 µg/mL (≈ 4.58 µM)

CC1(C)S[C@@H]2[C@H](NC(=O)[C@H](N)c3ccccc3)C(=O)N2[C@H]1C(=O)O [Ampicillin]
MIC [1, 3]: > 32 µg/mL | MIC [1, 4]: > 32 µg/mL | MIC [1, 5]: > 32 µg/mL | MIC [2, 6]: 2 µg/mL (≈ 5.72 µM) | MIC [2, 7]: 32 µg/mL (≈ 91.6 µM) | MIC [2, 8]: 8 µg/mL (≈ 22.9 µM) | MIC [2, 9]: 8 µg/mL (≈ 22.9 µM) | susceptibility/resistance of the S. aureus isolates based on the MIC breakpoints [2]: 3 out of 4 isolates showed resistance

CC(C)C[C@H](NC(=O)[C@H](N)Cc1ccccc1)C(=O)N[C@H](CCCCN)C(=O)N[C@@H](CO)C(=O)N[C@H]1C(=O)N[C@@H](C)C(=O)N[C@@H](CC(C)C)C(=O)N[C@@H](CC(C)C)C(=O)O[C@H]1C [analogue 5]
MIC against MRSA ATCC 33591 (MRSA ATCC 33591; [10]): > 32 µg/mL

CC(C)C[C@@H]1NC(=O)[C@H](C)NC(=O)[C@H](NC(=O)[C@H](CO)NC(=O)[C@@H](CCCCN)NC(=O)[C@H](NC(=O)[C@@H](N)Cc2ccccc2)C2CCCCC2)[C@H](C)OC(=O)[C@H](CC(C)C)NC1=O [analogue 11, Leu2Chg–Novltex] (H-F[dChg][dK]S[dT]ALL; ester 5-C)
fold decrease in antibacterial activity (MIC) compared to analogue 12 (MRSA ATCC 33591; MRSA ATCC 33591): 32 fold | MIC against MRSA ATCC 33591 (MRSA ATCC 33591; [11]): 8 µg/mL (≈ 8.89 µM)

CC(C)C[C@@H]1NC(=O)[C@H](C)NC(=O)[C@H](NC(=O)[C@H](CO)NC(=O)[C@@H](CCCCN)NC(=O)[C@@H](Cc2ccc(O)cc2)NC(=O)[C@@H](N)Cc2ccccc2)[C@H](C)OC(=O)[C@H](CC(C)C)NC1=O [analogue 15, Leu2Tyr–Novltex] (H-F[dY][dK]S[dT]ALL; ester 5-C)
MIC against MRSA ATCC 33591 (MRSA ATCC 33591; [11]): >32 µg/mL

Clovibactin
MIC, Enterococcus faecium 1563254 ([1]; MDR clinical isolate 1563254, MHB, 0.002% polysorbate 80, 37 °C, 24 h, daptomycin with 50 mg/L calcium chloride): 0.063 µg/mL | MIC, Enterococcus faecium 1581582 ([1]; MDR clinical isolate 1581582, MHB, 0.002% polysorbate 80, 37 °C, 24 h, daptomycin with 50 mg/L calcium chloride): 0.25 µg/mL | MIC, Enterococcus faecium 1766686 ([1]; MDR clinical isolate 1766686, MHB, 0.002% polysorbate 80, 37 °C, 24 h, daptomycin with 50 mg/L calcium chloride): 0.25 µg/mL | MIC, Staphylococcus aureus NR 45914 ([2]; MDR strain NR 45914, MHB, 0.002% polysorbate 80, 37 °C, 24 h, daptomycin with 50 mg/L calcium chloride): 0.063 µg/mL | MIC, Staphylococcus aureus NR 45926 ([2]; MDR strain NR 45926, MHB, 0.002% polysorbate 80, 37 °C, 24 h, daptomycin with 50 mg/L calcium chloride): 0.063 µg/mL | MIC, Staphylococcus aureus NR 45930 ([2]; MDR strain NR 45930, MHB, 0.002% polysorbate 80, 37 °C, 24 h, daptomycin with 50 mg/L calcium chloride): 0.25 µg/mL | MIC, Staphylococcus aureus NR 46062 ([2]; MDR strain NR 46062, MHB, 0.002% polysorbate 80, 37 °C, 24 h, daptomycin with 50 mg/L calcium chloride): 0.063 µg/mL

CC(C)C[C@@H]1NC(=O)[C@H](C)NC(=O)[C@H](NC(=O)[C@H](CO)NC(=O)[C@@H](CCCCN)NC(=O)[C@@H](Cc2ccccc2)NC(=O)[C@@H](N)Cc2ccccc2)[C@H](C)OC(=O)[C@H](CC(C)C)NC1=O [analogue 14, Leu2Phe–Novltex] (H-F[dF][dK]S[dT]ALL; ester 5-C)
MIC against MRSA ATCC 33591 (MRSA ATCC 33591; [11]): 8 µg/mL (≈ 8.81 µM)

CC[C@H](C)[C@@H]1NC(=O)[C@H](CC(C)C)NC(=O)[C@H](C)NC(=O)[C@H](NC(=O)[C@H](CO)NC(=O)[C@@H](CCCCN)NC(=O)[C@@H](CC(C)C)NC(=O)[C@@H](N)Cc2ccccc2)[C@H](C)OC1=O [analogue 10] (H-F[dL][dK]S[dT]ALI; ester 5-C)
MIC against MRSA ATCC 33591 (MRSA ATCC 33591; [10]): 8 µg/mL (≈ 9.15 µM)

CC(C)C[C@@H]1NC(=O)[C@H](C)NC(=O)[C@H](NC(=O)[C@@H](CO)NC(=O)[C@H](CCCCN)NC(=O)[C@@H](CC(C)C)NC(=O)[C@@H](N)Cc2ccccc2)[C@H](C)OC(=O)[C@H](CC(C)C)NC1=O [analogue 6]
MIC against MRSA ATCC 33591 (MRSA ATCC 33591; [10]): > 32 µg/mL

CC(C)C[C@@H]1NC(=O)[C@H](C)NC(=O)[C@H](NC(=O)[C@@H](CO)NC(=O)[C@@H](CCCCN)NC(=O)[C@@H](CC(C)C)NC(=O)[C@H](N)Cc2ccccc2)[C@H](C)OC(=O)[C@H](CC(C)C)NC1=O [analogue 9]
MIC against MRSA ATCC 33591 (MRSA ATCC 33591; [10]): 16 µg/mL (≈ 18.3 µM)

CC(=O)NC[C@H]1CN(c2ccc(N3CCOCC3)c(F)c2)C(=O)O1 [Linezolid]
MIC [1, 3]: 16 µg/mL (≈ 47.4 µM) | MIC [1, 4]: 1 µg/mL (≈ 2.96 µM) | MIC [1, 5]: 1 µg/mL (≈ 2.96 µM) | MIC ([1]; read-out: MIC, two E. faecium clinical isolates that remained susceptible to linezolid): 1 µg/mL (≈ 2.96 µM) | MIC [2, 6]: 2 µg/mL (≈ 5.93 µM) | MIC [2, 7]: 32 µg/mL (≈ 94.9 µM) | MIC [2, 8]: 4 µg/mL (≈ 11.9 µM) | MIC [2, 9]: 16 µg/mL (≈ 47.4 µM) | susceptibility/resistance of the S. aureus isolates based on the MIC breakpoints [2]: 3 out of 4 isolates showed resistance

CC(C)C[C@@H]1NC(=O)[C@@H](CC(C)C)NC(=O)[C@H](C)NC(=O)[C@H](NC(=O)[C@H](CO)NC(=O)[C@@H](CCCCN)NC(=O)[C@@H](CC(C)C)NC(=O)[C@@H](N)Cc2ccccc2)[C@H](C)OC1=O [analogue 2]
MIC against MRSA ATCC 33591 (MRSA ATCC 33591; [10]): 32 µg/mL (≈ 36.6 µM)

CC(C)C[C@@H]1NC(=O)[C@@H](CC(C)C)NC(=O)[C@H](C)NC(=O)[C@@H](NC(=O)[C@H](CO)NC(=O)[C@@H](CCCCN)NC(=O)[C@@H](CC(C)C)NC(=O)[C@@H](N)Cc2ccccc2)[C@@H](C)OC1=O [analogue 1]
MIC against MRSA ATCC 33591 (MRSA ATCC 33591; [10]): 8 µg/mL (≈ 9.15 µM)

CC(C)C[C@@H]1NC(=O)[C@H](C)NC(=O)[C@H](NC(=O)[C@H](CO)NC(=O)[C@H](CCCCN)NC(=O)[C@H](CC(C)C)NC(=O)[C@@H](N)Cc2ccccc2)[C@H](C)OC(=O)[C@H](CC(C)C)NC1=O [analogue 8]
MIC against MRSA ATCC 33591 (MRSA ATCC 33591; [10]): > 32 µg/mL

CO/N=C(\C(=O)N[C@@H]1C(=O)N2C(C(=O)O)=C(COC(C)=O)CS[C@H]12)c1csc(N)n1 [Cefotaxime]
MIC [1, 3]: > 32 µg/mL | MIC [1, 4]: > 32 µg/mL | MIC [1, 5]: > 32 µg/mL | MIC [2, 6]: 4 µg/mL (≈ 8.78 µM) | MIC [2, 7]: 16 µg/mL (≈ 35.1 µM) | MIC [2, 8]: 8 µg/mL (≈ 17.6 µM) | MIC [2, 9]: 16 µg/mL (≈ 35.1 µM)

CC(C)C[C@@H]1NC(=O)[C@H](C)NC(=O)[C@H](NC(=O)[C@H](CO)NC(=O)[C@H](CCCCN)NC(=O)[C@@H](CC(C)C)NC(=O)[C@H](N)Cc2ccccc2)[C@H](C)OC(=O)[C@H](CC(C)C)NC1=O [analogue 7]
MIC against MRSA ATCC 33591 (MRSA ATCC 33591; [10]): > 32 µg/mL and 32 µg/mL
